Laboratory results from publication PMC4263425 (Biochemistry, 2014).

Assays:
human HDAC8 [1] = biological target: T1, human HDAC8 (Homo sapiens, UniProt Q9BY41); experiment: Isothermal titration calorimetry; assay type: binding
T1 sequence (Q9BY41 1-377): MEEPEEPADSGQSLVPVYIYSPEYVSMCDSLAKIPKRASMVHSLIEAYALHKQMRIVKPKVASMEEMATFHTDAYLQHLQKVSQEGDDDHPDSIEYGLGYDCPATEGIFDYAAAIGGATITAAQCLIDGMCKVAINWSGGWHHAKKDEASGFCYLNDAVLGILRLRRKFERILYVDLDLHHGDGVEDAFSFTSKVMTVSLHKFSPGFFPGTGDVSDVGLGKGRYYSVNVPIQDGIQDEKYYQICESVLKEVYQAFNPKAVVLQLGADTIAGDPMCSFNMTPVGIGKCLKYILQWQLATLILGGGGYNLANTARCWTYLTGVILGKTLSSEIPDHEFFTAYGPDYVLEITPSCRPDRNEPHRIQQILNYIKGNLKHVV

human HDAC8 [2] = biological target: T1, human HDAC8; experiment: Temperature-dependent ITC; assay type: binding; conditions: for temp (K), where ΔG° = ΔH°: interpolated from the ΔCp° plots, TΔS° = 0
HDAC8 = conditions: read-out: Ki for HDAC8; cited from earlier work
[3] = Tris-HCl buffer (pH 7.5), 25 °C
[4] = difference versus SAHA, Table 1 conditions

Compound	stoichiometry (human HDAC8 [1]; [3])	ΔG°obs (human HDAC8 [1]; [3])	temp (K), where ΔG° = ΔH° (human HDAC8 [2])	Ki (HDAC8)	also measured
O=C(CCCCCCC(=O)Nc1ccccc1)NO [SAHA, suberoylanilide hydroxamic acid]	0.9 ± 0.1	–8.4 ± 0.3 kcal/mol	288 K		higher favorable binding enthalpy compared to that of TSA (human HDAC8 [1]; Table 1 conditions): 2 kcal/mol; stoichiometry of the enzyme–SAHA complex (human HDAC8 [1]; control ITC titration for every batch of enzyme): 0.9–1
Cn1cc(C(=O)c2ccccc2)cc1C=CC(=O)NO [APHA]				0.6 µM	
CC(NC(=O)CCCc1ccc2ccc3cccc4ccc1c2c34)C(=O)NO (stereo not shown) [MH-12/4, N-(1-Hydroxycarbamoyl-ethyl)-4-pyren-1-yl-butyramide]	0.9 ± 0.1	–8.0 ± 0.4 kcal/mol	341 K		TΔS°obs (human HDAC8 [1]; [3]): 5.3 ± 0.4 kcal/mol; ΔH°obs (human HDAC8 [1]; [3]): –2.72 ± 0.3 kcal/mol; binding enthalpy less favorable than that of SAHA by (human HDAC8 [1]; [4]): 8.2 kcal/mol; binding entropy (TΔS°) more favorable than that of SAHA by (human HDAC8 [1]; [4]): 7.8 kcal/mol; ΔCp° (human HDAC8 [2]; 5–25 °C, Tris-HCl buffer, slope of ΔH°obs vs temperature): –0.13 ± 0.02 kcal mol^–1 K^–1
O=C(CCCc1ccccc1)NO [4-PBHA]				1.85 µM	
O=C(CCCCCCC(=O)Nc1cccnc1)NO [pyroxamide]				1 µM	
